Assay results: patent US20260193293A1, “PEPTIDES CAPABLE OF INHIBITING PROTEIN-PROTEIN INTERACTIONS AT GABAB1A SUBUNIT AND USES THEREOF” (UNIVERSITY OF COPENHAGEN, priority 2022, published 2026)
Where two headings read alike, the source gives them in different places. Each block holds one molecule with its values, some of them ahead of it. Non-standard residues stand in square brackets, D forms with d. Residues, ends and D or L forms follow the SMILES beside them. NMeW = CN[C@@H](Cc1c[nH]c2ccccc12)C(=O)O; NMeT = CN[C@H](C(=O)O)[C@@H](C)O; NMeD = CN[C@@H](CC(=O)O)C(=O)O; NMeA = CN[C@@H](C)C(=O)O

Molecular target: Sushi domains (SD1/2) protein
Experiment: Fluorescence polarization (FP) competition assay with AJAP-1probe, calculated Ki
Format: binding
Summary of the method: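 Competition against 25 nM TAMRA-labelled peptide probe binding SD1/2, in PBS pH 7.4 with 1% BSA at rt, read at 530/580 nm. IC50 from sigmoidal dose-response fits, at least triplicate; Ki calculated from IC50 using probe Kd from saturation binding.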

[1] = Table 1, affinity maturation, mean ± SEM, n ≥ 3, read-out: Ki
[2] = Table 7, Ala-, D-amino acids and N-methylation scans of APPWT, read-out: Ki (nM) mean ± SEM
[3] = Table 8, Ala-, D-amino acids and N-methylation scans of AJAP-1WT, read-out: Ki (nM) mean ± SEM
[4] = Table 4, truncation and elongation scans of APP epitope, read-out: Ki (nM) mean ± SEM
[5] = Table 11, deep mutational scanning validation variants of AJAP-1WT, read-out: Ki (nM) mean ± SEM

SMILES: CC(=O)N[C@@H](CCC(=O)O)C(=O)N[C@@H](CC(=O)O)C(=O)N[C@@H](CC(=O)O)C(=O)N[C@@H](CO)C(=O)N[C@@H](CC(=O)O)C(=O)N[C@H](C(=O)N[C@@H](Cc1ccc(O)cc1)C(=O)N[C@@H](Cc1c[nH]c2ccccc12)C(=O)NCC(=O)NCC(=O)N[C@@H](C)C(=O)N[C@@H](CC(=O)O)C(=O)N[C@H](C(=O)N[C@@H](CC(=O)O)C(N)=O)[C@@H](C)O)C(C)C (Ac-EDDSDVYWGGADTD-NH2)
- Ki (Table 10, deep mutational scanning validation variants of APPWT, read-out: Ki (nM) mean ± SEM): 3600 ± 49 nM

SMILES: CC(=O)N[C@@H](CCC(=O)O)C(=O)N[C@@H](CC(=O)O)C(=O)N[C@@H](CC(=O)O)C(=O)N[C@@H](CO)C(=O)N[C@@H](CC(=O)O)C(=O)N[C@H](C(=O)N[C@@H](Cc1c[nH]c2ccccc12)C(=O)N(C)[C@@H](Cc1c[nH]c2ccccc12)C(=O)NCC(=O)NCC(=O)N[C@@H](C)C(=O)N[C@@H](CC(=O)O)C(=O)N[C@H](C(=O)N[C@@H](CC(=O)O)C(N)=O)[C@@H](C)O)C(C)C [EDDSDVW(N-Me-W)GGADTD] (Ac-EDDSDVW[NMeW]GGADTD-NH2)
- Ki [2]: 1380 ± 16 nM

SMILES: CC[C@H](C)[C@H](NC(=O)[C@H](Cc1ccccc1)NC(=O)[C@H](CCC(=O)O)NC(=O)[C@@H](NC(=O)[C@H](CCC(=O)O)NC(C)=O)[C@@H](C)O)C(=O)N(C)[C@@H](C)C(=O)N[C@@H](Cc1c[nH]c2ccccc12)C(=O)NCC(=O)N1CCC[C@H]1C(=O)N[C@H](C(=O)NCC(=O)N[C@@H](CC(=O)O)C(=O)N[C@@H](CCC(=O)O)C(=O)N[C@@H](CC(=O)O)C(N)=O)[C@@H](C)O [ETEFI(N-Me-A)WGPTGDED] (Ac-ETEFI[NMeA]WGPTGDED-NH2)
- Ki (Table 8, in μM, read-out: Ki (nM) mean ± SEM): > 6250 nM

SMILES: CC[C@H](C)[C@H](NC(=O)[C@H](Cc1ccccc1)NC(=O)[C@H](CCC(=O)O)NC(=O)[C@H]([C@@H](C)O)N(C)C(=O)[C@H](CCC(=O)O)NC(C)=O)C(=O)N[C@@H](C)C(=O)N[C@@H](Cc1c[nH]c2ccccc12)C(=O)NCC(=O)N1CCC[C@H]1C(=O)N[C@H](C(=O)NCC(=O)N[C@@H](CC(=O)O)C(=O)N[C@@H](CCC(=O)O)C(=O)N[C@@H](CC(=O)O)C(N)=O)[C@@H](C)O [E(N-Me-T)EFIAWGPTGDED] (Ac-E[NMeT]EFIAWGPTGDED-NH2)
- Ki [3]: 37 ± 2 nM

SMILES: CC[C@H](C)[C@H](NC(=O)[C@H](Cc1ccccc1)NC(=O)[C@H](CCC(=O)O)NC(=O)[C@@H](NC(=O)[C@H](CCC(=O)O)NC(=O)[C@@H](NC(C)=O)[C@@H](C)O)[C@@H](C)O)C(=O)N[C@@H](C)C(=O)N[C@@H](Cc1c[nH]c2ccccc12)C(=O)NCC(=O)N1CCC[C@H]1C(=O)N[C@H](C(N)=O)[C@@H](C)O (Ac-TETEFIAWGPT-NH2)
- Ki (Table 5, elongation and truncation scan of AJAP-1 binding epitope, read-out: Ki (nM) mean ± SEM): 236 ± 9 nM

SMILES: CC(=O)N[C@@H](CCC(=O)O)C(=O)N[C@@H](CCC(=O)O)C(=O)N[C@@H](CC(=O)O)C(=O)N[C@@H](CC(=O)O)C(=O)N[C@@H](CO)C(=O)N[C@@H](CC(=O)O)C(=O)N[C@H](C(=O)N[C@@H](Cc1c[nH]c2ccccc12)C(=O)N[C@@H](Cc1c[nH]c2ccccc12)C(N)=O)C(C)C (Ac-EEDDSDVWW-NH2)
- Ki [4]: 1786 ± 16 nM

SMILES: CC[C@H](C)[C@H](NC(=O)[C@H](Cc1ccccc1)NC(=O)[C@H](CCC(=O)O)NC(=O)[C@@H](NC(=O)[C@H](CCC(=O)O)NC(C)=O)[C@@H](C)O)C(=O)N[C@@H](C)C(=O)N[C@@H](Cc1c[nH]c2ccccc12)C(=O)NCC(=O)N1CCC[C@H]1C(=O)N[C@@H](Cc1ccccc1)C(=O)NCC(=O)N[C@@H](CC(=O)O)C(=O)N[C@@H](CCC(=O)O)C(=O)N[C@@H](CC(=O)O)C(N)=O [ETEFIAWGPFGDED] (Ac-ETEFIAWGPFGDED-NH2)
- Ki [5]: 40 ± 1 nM

SMILES: CC(=O)N[C@@H](CCC(=O)O)C(=O)N(C)[C@@H](CC(=O)O)C(=O)N[C@@H](CC(=O)O)C(=O)N[C@@H](CO)C(=O)N[C@@H](CC(=O)O)C(=O)N[C@H](C(=O)N[C@@H](Cc1c[nH]c2ccccc12)C(=O)N[C@@H](Cc1c[nH]c2ccccc12)C(=O)NCC(=O)NCC(=O)N[C@@H](C)C(=O)N[C@@H](CC(=O)O)C(=O)N[C@H](C(=O)N[C@@H](CC(=O)O)C(N)=O)[C@@H](C)O)C(C)C (Ac-E[NMeD]DSDVWWGGADTD-NH2)
- Ki [2]: 655 ± 24 nM

SMILES: CC(=O)N[C@@H](CCC(=O)O)C(=O)N[C@@H](CCC(=O)O)C(=O)N[C@@H](CC(=O)O)C(=O)N[C@@H](CC(=O)O)C(=O)N[C@@H](CO)C(=O)N[C@@H](CC(=O)O)C(=O)N[C@H](C(=O)N[C@@H](Cc1c[nH]c2ccccc12)C(=O)N[C@@H](Cc1c[nH]c2ccccc12)C(=O)NCC(=O)NCC(=O)N[C@@H](C)C(=O)N[C@@H](CC(=O)O)C(=O)N[C@H](C(=O)N[C@@H](CC(=O)O)C(=O)N[C@@H](Cc1ccc(O)cc1)C(=O)N[C@@H](C)C(=O)N[C@@H](CC(=O)O)C(=O)NCC(=O)NCC(=O)N[C@@H](CCC(=O)O)C(=O)N[C@@H](CC(=O)O)C(N)=O)[C@@H](C)O)C(C)C (Ac-EEDDSDVWWGGADTDYADGGED-NH2)
- Ki [4]: 356 ± 11 nM

SMILES: CC(=O)N[C@@H](CCC(=O)O)C(=O)N[C@@H](CCC(=O)O)C(=O)N[C@@H](CC(=O)O)C(=O)N[C@@H](CC(=O)O)C(=O)N[C@@H](CO)C(=O)N[C@@H](CC(=O)O)C(=O)N[C@H](C(=O)N[C@@H](Cc1c[nH]c2ccccc12)C(N)=O)C(C)C (Ac-EEDDSDVW-NH2)
- Ki [4]: > 62500 nM

SMILES: CC[C@H](C)[C@H](NC(=O)[C@H](C)NC(=O)[C@H](Cc1c[nH]c2ccccc12)NC(=O)[C@@H]1CCCN1C(C)=O)C(=O)N[C@H](C(=O)N[C@@H](Cc1c[nH]c2ccccc12)C(=O)NCC(=O)N1CCC[C@H]1C(=O)N[C@H](C(=O)N[C@H](C(=O)N[C@@H](CO)C(=O)N[C@@H](CCCNC(=N)N)C(=O)N[C@@H](CCC(=O)O)C(=O)N[C@@H](CC(=O)O)C(=O)NCC(=O)NCC(=O)N[C@@H](CC(=O)O)C(N)=O)C(C)C)[C@@H](C)O)C(C)C (Ac-PWAIVWGPTVSREDGGD-NH2)
- Ki (Table 6, elongation and truncation scan of PIANP binding epitope, read-out: Ki (nM) mean ± SEM): 716 ± 6 nM

Results, then the molecule that gave them:

- Ki [1]: 9.3 ± 0.2 nM
- Ki (Table 16, ncAAs incorporated peptides, read-out: Ki (nM) mean ± SEM): 9.3 ± 0.2 nM
SMILES: CC[C@H](C)[C@H](NC(=O)[C@H](Cc1ccc(OCc2ccccc2)cc1)NC(=O)[C@H](CC(=O)O)NC(=O)[C@H](CC(=O)O)NC(=O)[C@H](CC(=O)O)NC(=O)[C@H](CCC(=O)O)NC(C)=O)C(=O)N[C@@H](CC(=O)O)C(=O)N[C@@H](Cc1c[nH]c2ccccc12)C(=O)N[C@@H](Cc1ccc(O)cc1)C(=O)N[C@@H](CC(=O)O)C(=O)N[C@@H](CO)C(=O)N[C@@H](CC(=O)O)C(=O)N[C@@H](CC(=O)O)C(=O)N[C@@H](CC(=O)O)C(N)=O [Peptide 33]

- Ki (Table 12, deep mutational scanning validation variants of PIANPWT, read-out: Ki (nM) mean ± SEM): 417 ± 6 nM
SMILES: CC[C@H](C)[C@H](NC(=O)[C@H](C)NC(=O)[C@H](Cc1c[nH]c2ccccc12)NC(=O)[C@@H]1CCCN1C(C)=O)C(=O)N[C@H](C(=O)N[C@@H](Cc1c[nH]c2ccccc12)C(=O)NCC(=O)N1CCC[C@H]1C(=O)N[C@H](C(=O)N[C@@H](CC(=O)O)C(=O)N[C@@H](CO)C(=O)N[C@@H](CCCNC(=N)N)C(=O)N[C@@H](CCC(=O)O)C(=O)N[C@@H](CC(=O)O)C(N)=O)[C@@H](C)O)C(C)C [PWAIVWGPTDSRED] (Ac-PWAIVWGPTDSRED-NH2)

- Ki [1]: 5.6 ± 0.7 nM
- Ki (Table 13, peptides for affinity maturation, read-out: Ki (nM) mean ± SEM): 5.6 ± 0.7 nM
SMILES: CC[C@H](C)[C@H](NC(=O)[C@H](Cc1c[nH]c2ccccc12)NC(=O)[C@H](CO)NC(=O)[C@H](CC(=O)O)NC(=O)[C@H](CC(=O)O)NC(=O)[C@H](CCC(=O)O)NC(C)=O)C(=O)N[C@@H](CC(=O)O)C(=O)N[C@@H](Cc1c[nH]c2ccccc12)C(=O)NCC(=O)N1CCC[C@H]1C(=O)N[C@H](C(=O)NCC(=O)N[C@@H](CC(=O)O)C(=O)N[C@@H](CCC(=O)O)C(=O)N[C@@H](CC(=O)O)C(N)=O)[C@@H](C)O [Peptide 29, Ac-EDDSWIDWGPTGDED-NH2] (Ac-EDDSWIDWGPTGDED-NH2)

- Ki [3]: 77 ± 3 nM
SMILES: CC[C@H](C)[C@H](NC(=O)[C@H](Cc1ccccc1)NC(=O)[C@H](CCC(=O)O)NC(=O)[C@@H](NC(=O)[C@H](CCC(=O)O)NC(C)=O)[C@@H](C)O)C(=O)N[C@@H](C)C(=O)N[C@@H](Cc1c[nH]c2ccccc12)C(=O)NCC(=O)N1CCC[C@H]1C(=O)N(C)[C@H](C(=O)NCC(=O)N[C@@H](CC(=O)O)C(=O)N[C@@H](CCC(=O)O)C(=O)N[C@@H](CC(=O)O)C(N)=O)[C@@H](C)O (Ac-ETEFIAWGP[NMeT]GDED-NH2)

- Ki (Table 9, Ala-, D-amino acids and N-methylation scans of PIANPWT, read-out: Ki (nM) mean ± SEM): 341 ± 7 nM
SMILES: CC[C@H](C)[C@H](NC(=O)[C@H](C)NC(=O)[C@H](Cc1c[nH]c2ccccc12)NC(=O)[C@@H]1CCCN1C(C)=O)C(=O)N[C@H](C(=O)N[C@@H](Cc1c[nH]c2ccccc12)C(=O)NCC(=O)N1CCC[C@H]1C(=O)N[C@H](C(=O)N[C@H](C(=O)N[C@@H](CO)C(=O)N[C@@H](C)C(=O)N[C@@H](CCC(=O)O)C(=O)N[C@@H](CC(=O)O)C(N)=O)C(C)C)[C@@H](C)O)C(C)C [PWAIVWGPTVSAED] (Ac-PWAIVWGPTVSAED-NH2)

- Ki [5]: 9 ± 1 nM
- Ki (purified peptides, read-out: Ki): 9 nM
- fold improved affinity relative to the wild type (relative to AJAP-1WT): 3 fold
- Ki (unit inferred, read-out: Ki): 9 nM
SMILES: CC[C@H](C)[C@H](NC(=O)[C@H](Cc1ccccc1)NC(=O)[C@H](CCC(=O)O)NC(=O)[C@@H](NC(=O)[C@H](CCC(=O)O)NC(C)=O)[C@@H](C)O)C(=O)N[C@@H](CC(=O)O)C(=O)N[C@@H](Cc1c[nH]c2ccccc12)C(=O)NCC(=O)N1CCC[C@H]1C(=O)N[C@H](C(=O)NCC(=O)N[C@@H](CC(=O)O)C(=O)N[C@@H](CCC(=O)O)C(=O)N[C@@H](CC(=O)O)C(N)=O)[C@@H](C)O [Peptide 26, Ac-ETEFIDWGPTGDED-NH2] (Ac-ETEFIDWGPTGDED-NH2)
